Experimental data as given in patent US12187663B2, “Thyromimetics with a biphenylmethane scaffold and their use” (INTERNATIONAL SOCIETY FOR DRUG DEVELOPMENT S.R.L., priority 2019, dated 2025).

Assays:
pancreatic acinar cells = experiment: Pancreatic acinar cell proliferation (BrdU labeling index); type: in vivo, rats; conditions: one week; T3 4 mg/kg diet; GC1 50 μg/kg gavage once daily; TG68 and IS25 50 μg/kg in drinking water
Method: FIG. 9. […] BrdU (1 mg/ml) in drinking water was given all throughout the experimental time. […] LI was expressed as number of BrdU-positive acinar cell nuclei/100 nuclei. At least 2000 acinar cells per pancreas were scored. Results are expressed as means±SE of 3 to 5 rats per group. (one way ANOVA). ***Statistically significant from control; P<0.001.
BrdU (1 mg/ml) in drinking water was given all throughout the experimental time. […] LI was expressed as number of BrdU-positive acinar cell nuclei/100 nuclei. At least 2000 acinar cells per pancreas were scored.

[1] = Panel of early-toxicity assays (in vitro ADME-TOX profiling); conditions: 10 μM of each compound
Method: FIG. 5. ADME-TOX profiling In order to assess the ADME-TOX profile of new synthetized compounds a full panel of in vitro assays was performed. Cytotoxic effects were evaluated on 4 different cell lines (U2-OS, HEK293, hTERT, MCF-7) at 24 h and 48 h after treatment with new compounds. Cardiac toxicity was assessed evaluating the inhibition effect of compounds on the hERG ion-channel, an important anti-target involved in heart functionalities. Metabolic interference was evaluated testing inhibitory effects of new compounds on four isoforms of CYP450 (CYP2C9, CYP2C19, CYP2D6, CYP3A4). In order to assess off-target liabilities, the inhibitory effects have been assessed against several well-known off-targets. […] The data were collected and analyzed in the form of a traffic-light system using criteria shown below.
Test compounds (20 nL of 10 mM top concentration in 100% v/v DMSO), positive control (PC; Valinomycin with final concentration of 10 μM and 0.1% v/v DMSO) and NC (final 0.1% v/v DMSO) were added in an empty polystyrene 384-well cell culture microtiter plate using the Echo 550 Liquid Handler and stored at room temperature before cell's seeding. […] At 24 h and 48 h post-treatment, 20 μL/well of CTG detection mix were added, and plates were read using an EnVision Multilabel 2103 Reader after a 10-min incubation in the dark. […]

Compound | pancreatic acinar cell proliferation (BrdU-positive acinar cells) (pancreatic acinar cells) | early-toxicity / liability profile (% inhibition heat map) [1]
CC(=O)Nc1ccc(Cc2c(C)cc(OCC(=O)O)cc2C)cc1C(C)C [TG68, 2-(4-(4-acetamido-3-isopropylbenzyl)-3,5-dimethylphenoxy)acetic acid] | mitogenic only for the liver and not for other tissues | safer profile
Cc1cc(OCC(=O)O)cc(C)c1Cc1ccc(N)c(C(C)C)c1 [IS25, 2-(4-(4-amino-3-isopropylbenzyl)-3,5-dimethylphenoxy)acetic acid] | mitogenic only for the liver and not for other tissues | safer profile
